Assay results reported in patent US20240343720A1, “AAK1 INHIBITOR AND USE THEREOF” (Xizang Haisco Pharmaceutical Co., Ltd., priority 2021, published 2024).

Assays:
[1] = biological target: AAK1 (Homo sapiens (Human), UniProt Q2M2I8); assay: In vitro AAK1 enzyme activity assay (ADP-Glo); assay type: biochemical; conditions: read-out: Inhibitory activity against AAK1 IC50
Method: Compound stock solution (concentration: 10 mM, dissolved in DMSO) was diluted with DMSO to 0.2 mM and then diluted with DMSO in 5-fold gradient to obtain compound solutions with 10 concentrations. Subsequently, the compound solutions with different concentrations were diluted 50-fold in 1×kinase reaction buffer (containing 40 mM Tris, 20 mM MgCl2, 0.1% BSA and 0.5 mM DTT) for later use. AAK1 (Signalchem, Cat #A01-11G-10) was diluted with 1×kinase reaction buffer to 2-fold the final concentration (final concentrations: 30 nM and 28 nM). AAK1 was added to a 384-well white plate at 2 μL/well, and the compounds were then added at 1 μL/well. The plate was sealed with a plate-sealing film, centrifuged at 1000 rpm for 30 seconds and then placed at room temperature for 10 minutes. A mixed solution of ATP (Promega, Cat #V914B) and substrate Micro2 (GenScript, Cat #PE0890) was formulated at 4-fold the final concentration (for AAK1, the corresponding final concentrations of ATP: 15 μM and 5 μM, and the corresponding final concentration of Micro2: 0.1 mg/mL). To the reaction plate was added the mixed solution of ATP and the substrate at 1 μL/well. The plate was sealed with a plate-sealing film and centrifuged at 1000 rpm for 30 seconds. The reaction was carried out at room temperature for 60 minutes (AAK1). ADP-Glo (Promega, Cat #V9102) was transferred to the 384-well plate at 4 μL/well and centrifugation was carried out at 1000 rpm for 1 minute. The mixture was incubated at 25° C. for 40 minutes. A detection solution was transferred to the 384-well plate at 8 μL/well and centrifugation was carried out at 1000 rpm for 1 minute. The resulting mixture was incubated at 25° C. for 40 minutes. The RLU (Relative luminescence unit) signal values were read using a Biotek multilable microplate reader and the percent inhibition was calculated according to the following formula: [1−(LUMcompound−LUMpositive control)/(LUMnegative control−LUMpositive control)]×100. IC50 values were calculated using Graphpad 7.0 software using a four-parameter non-linear fit equation.

[2] = Pharmacokinetic test in beagle dogs; assay type: in vivo; conditions: for AUC(0-t) / clearance / Vd: male, dog, plasma; for Vd: read-out: Vdss
Method: Experimental animals: male beagle dogs, about 8-11 kg, 6 beagle dogs/compound, purchased from Beijing Marshall Biotechnology Co., Ltd.
Experimental method: on the day of the experiment, 12 beagle dogs were randomly grouped according to their body weights. the animals were fasted with water available for 12 to 14 h one day before the administration, and were fed 4 h after the administration; and the administration was performed according to Table 2.
Before and after the administration, 1 ml of blood was taken from the jugular veins or limb veins, and placed in an EDTAK2 centrifuge tube. Centrifugation was performed at 5000 rpm at 4° C. for 10 min, and plasma was collected. Blood sampling time points for both the LX9211 intravenous administration group and intragastric administration group include: 0 min, 5 min, 15 min, 30 min, 1 h, 2 h, 4 h, 6 h, 8 h, 10 h, 12 h, and 24 h, and blood sampling time points for both the compound 19 intravenous administration group and intragastric administration group include: 0 min, 5 min, 15 min, 30 min, 1 h, 2 h, 4 h, 6 h, 8 h, 10 h, 12 h, 24 h, and 48 h. Before analysis and detection, all samples were stored at −80° C. The samples were analysed quantitatively by LC-MS/MS.

[3] = biological target: hERG potassium ion channel (Homo sapiens (Human), UniProt Q12809); assay: Test for hERG potassium ion channel (manual whole cell patch-clamp); assay type: cell-based; conditions: for IC50: CHO cells stably expressing hERG, read-out: IC50 (hERG potassium channel current); for inhibition at 40 µM: human, CHO cells stably expressing hERG potassium channel, read-out: Inhibition rate at the highest concentration tested (hERG potassium channel current)
Sequence of hERG potassium ion channel (Q12809 whole entry): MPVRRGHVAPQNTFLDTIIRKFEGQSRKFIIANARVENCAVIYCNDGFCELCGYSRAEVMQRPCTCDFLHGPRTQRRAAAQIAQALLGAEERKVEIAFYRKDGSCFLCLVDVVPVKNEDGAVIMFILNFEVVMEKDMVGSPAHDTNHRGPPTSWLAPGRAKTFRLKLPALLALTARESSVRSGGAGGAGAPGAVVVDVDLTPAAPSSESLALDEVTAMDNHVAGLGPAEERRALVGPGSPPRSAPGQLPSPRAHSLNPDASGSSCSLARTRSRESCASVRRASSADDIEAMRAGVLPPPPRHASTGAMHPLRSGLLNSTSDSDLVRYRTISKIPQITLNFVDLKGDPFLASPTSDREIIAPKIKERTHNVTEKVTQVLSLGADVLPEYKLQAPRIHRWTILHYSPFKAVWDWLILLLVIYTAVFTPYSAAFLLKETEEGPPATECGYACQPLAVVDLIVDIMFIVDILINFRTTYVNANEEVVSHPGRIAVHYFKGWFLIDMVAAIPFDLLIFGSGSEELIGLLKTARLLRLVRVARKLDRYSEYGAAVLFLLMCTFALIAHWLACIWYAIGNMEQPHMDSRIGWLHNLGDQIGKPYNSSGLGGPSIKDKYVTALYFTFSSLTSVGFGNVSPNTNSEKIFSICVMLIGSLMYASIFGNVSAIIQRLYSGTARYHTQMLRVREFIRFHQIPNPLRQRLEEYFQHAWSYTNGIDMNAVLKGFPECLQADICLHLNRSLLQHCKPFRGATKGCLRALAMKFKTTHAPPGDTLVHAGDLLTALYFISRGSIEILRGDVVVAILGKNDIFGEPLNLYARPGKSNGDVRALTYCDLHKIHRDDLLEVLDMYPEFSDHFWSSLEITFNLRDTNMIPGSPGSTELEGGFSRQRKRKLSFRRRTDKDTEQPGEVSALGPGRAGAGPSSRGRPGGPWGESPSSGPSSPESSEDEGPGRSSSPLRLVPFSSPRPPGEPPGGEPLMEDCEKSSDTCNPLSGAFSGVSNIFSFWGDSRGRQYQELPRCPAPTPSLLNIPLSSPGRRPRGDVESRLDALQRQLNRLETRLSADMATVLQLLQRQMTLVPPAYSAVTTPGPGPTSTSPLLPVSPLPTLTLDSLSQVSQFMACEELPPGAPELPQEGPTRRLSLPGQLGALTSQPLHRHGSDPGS
Excerpt: Experimental platform: electrophysiological manual patch-clamp system
Cell line: Chinese hamster ovary (CHO) cell lines stably expressing hERG potassium ion channel
Experimental method: In CHO (Chinese Hamster Ovary) cells stably expressing hERG potassium channel, whole cell patch-clamp technique was used to record hERG potassium channel current at room temperature. The glass microelectrode was made of a glass electrode blank (BF150-86-10, Sutter) by a puller. The tip resistance after filling the liquid in the electrode was about 2-5 MΩ. The glass microelectrode can be connected to the patch-clamp amplifier by inserting the glass microelectrode into an amplifier probe. The clamping voltage and data recording were controlled and recorded by the pClamp 10 software through a computer. The sampling frequency was 10 kHz, and the filtering frequency was 2 kHz. After the whole cell records were obtained, the cells were clamped at −80 mV, and the step voltage that induced the hERG potassium current (IhERG) was depolarized from −80 mV to +20 mV for 2 s, then repolarized to −50 mV, and returned to −80 mV after 1 s. This voltage stimulation was given every 10 s, and the administration process was started after the hERG potassium current was confirmed to be stable (at least 1 minute). The compound was administered for at least 1 minute at each test concentration, and at least 2 cells (n≥2) were tested at each concentration.
Data processing: Data analysis processing was carried out by using pClamp 10, GraphPad Prism 5 and Excel software. The inhibition degree of hERG potassium current (peak value of hERG tail current induced at −50 mV) at different compound concentrations was calculated by the following formula: […]
wherein, Inhibition % represents the percentage of inhibition of hERG potassium current by the compound, and I and Io represent the amplitude of hERG potassium current after and before dosing, respectively.
Compound IC50 was calculated using GraphPad Prism 5 software by fitting according to the following equation: […]
Among the equation, X represents the Log value of the tested concentration of the test sample, Y represents the inhibition percentage at the corresponding concentration, and Bottom and Top represent the minimum and maximum inhibition percentage, respectively.

[4] = tested on: SNL-induced mouse model of neuropathic pain; assay: Spinal nerve ligation (SNL)-induced mouse model of neuropathic pain, mechanical pain threshold (MPT); assay type: in vivo, C57BL/6J mice; conditions: for Time at which analgesic efficacy reached the peak after the administration / Effect on pain threshold (MPT) of mice after SNL modelling: 10 mg/kg intragastrically, single administration; for Effect on pain threshold (MPT) of mice after SNL modelling: 1, 3 and 6 hours after administration
Excerpt: Male C57BL/6J mice (8 weeks old) purchased from Jinan Pengyue Experimental Animal Breeding Co., Ltd. were adaptively raised for one week and then the models were established. The specific establishment method comprises the following steps: • 1) disinfecting the surgical instrument and ligature; • 2) anesthetizing the mice with isoflurane and then placing the mice on the operating table in the prone position; • 3) shaving the fur near the hip bones of the mice and preparing the skin, and making an incision of about 2 cm along the spine; • 4) isolating the fascia along the spine, performing blunt dissection of the muscles, and exposing the transverse process of L5; • 5) carefully cutting the transverse process of L5 with forceps and exposing the L5 spinal nerve; • 6) carefully isolating the L5 nerve with a glass dissecting needle, and ligating the L5 nerve with a 5-0 ligature; and • 7) suturing the muscles and skin and disinfecting same with iodophor.
The mice that were unsuccessful in modeling were eliminated the next day after modeling (marker for successful modeling: mice with their hind paws curled up). After modeling, the mice were stroked for 3 to 5 minutes every day to ensure that the animals were familiar with the experimenter, and then the mice were placed on a metal pain measuring frame for 40 to 60 minutes of adaptation. After 3 days of acclimatization, Von Frey filaments (Aesthesio®; 0.16 g, 0.4 g, 0.6 g, 1.0 g, 1.4 g and 2.0 g) were used to test the pre-administration baseline values of the animals (Ascending testing approach). Each animal was tested twice and average values were taken, with intervals of at least 5 minutes. The animals were grouped according to the baseline values (10 animals per group). After the grouping, LX-9211 (1 and 10 mg/kg), compound 3 (1 and 10 mg/kg) or vehicle (40% PEG-400+10% ethanol+15% Tween 80+35% physiological saline) were administered intragastrically. The mice were tested for the mechanical pain threshold (MPT) at 1, 3 and 6 hours after the administration. Time-MPT curve was plotted using GraphPad 8.3.0, and statistical analysis was performed.

[5] = Mouse brain/blood ratio test; assay type: in vivo; conditions: ICR mice, i.g. (10 mg/kg); for Kp / AUC(0-t): male, mouse, po; for Kp: brain/plasma; for AUC(0-t): plasma, read-out: Plasma AUC0-t
Method: 5.1 Experimental animals: Male ICR mice, 20-25 g, 9 mice/compound. Purchased from Chengdu Ddossy Experimental Animals Co., Ltd.
5.2 Experimental design: on the day of the experiment, 18 ICR mice were randomly grouped according to their body weights. The animals were fasted with water available for 12 to 14 h one day before the administration, and were fed 4 h after the administration;
After intragastric administration, whole blood and brain tissue were collected at 0.5 h, 4 h and 24 h, and the whole blood was centrifuged to separate the plasma. The brain tissue was rinsed with cold physiological saline to remove the residual blood on the surface, drained out and then homogenized. Before analysis and detection, all samples were stored at −80° C. The samples were analyzed quantitatively by LC-MS/MS.

Sequence of AAK1 (Q2M2I8 27-365): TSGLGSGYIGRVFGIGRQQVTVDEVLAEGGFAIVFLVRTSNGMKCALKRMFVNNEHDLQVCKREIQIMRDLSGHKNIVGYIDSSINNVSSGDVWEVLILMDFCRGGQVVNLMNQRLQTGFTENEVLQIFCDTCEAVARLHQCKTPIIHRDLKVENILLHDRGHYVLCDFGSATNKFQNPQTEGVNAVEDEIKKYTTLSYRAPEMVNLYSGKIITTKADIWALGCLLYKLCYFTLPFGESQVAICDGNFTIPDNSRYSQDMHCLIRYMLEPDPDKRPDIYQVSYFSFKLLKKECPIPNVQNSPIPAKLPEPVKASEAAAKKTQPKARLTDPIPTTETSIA

SMILES | IC50 [1] [µM] | F ([2]; i.g. (3 mg/kg)) [%] | AUC(0-t) ([2]; iv, i.v. (1 mg/kg)) [ng·h/mL] | clearance ([2]; iv, i.v. (1 mg/kg)) [mL/min/kg] | Vd ([2]; iv, i.v. (1 mg/kg)) [L/kg] | AUC(0-t) ([2]; po, i.g. (3 mg/kg)) [ng·h/mL] | IC50 [3] [µM] | inhibition at 40 µM [3] [%] | Time at which analgesic efficacy reached the peak after the administration [4] [h] | Effect on pain threshold (MPT) of mice after SNL modelling [4] | Analgesic efficacy compared with LX-9211 ([4]; 10 mg/kg, at 3 and 6 hours after the administration) | Brain tissue AUC0-t [5] [ng·h/g] | Kp [5] | AUC(0-t) [5] [ng·h/mL]
COC(=O)Nc1cc(-c2ccc(OC[C@@](C)(N)CC(C)(C)F)c(C(F)F)n2)ccn1 [Compound 19, Methyl (S)-(5-((2-amino-4-fluoro-2,4-dimethylpentyl)oxy)-6-(difluoromethyl) [2,4′-bipyridin]-2′-yl)carbamate] | 0.0377 | 113 ± 6.9 | 398 ± 94 | 39.8 ± 10 | 23.6 ± 3.8 | 1350 ± 83 | 24.1 | 68.9 ± 1.8 | – | – | – | – | – | –
C=C(C)C[C@](C)(N)COc1ccc(-c2ccnc(C(F)F)c2)nc1C(F)F [Compound 3, (S)-1-((2′,6-bis(difluoromethyl)-[2,4′-bipyridin]-5-yl)oxy)-2,4-dimethylpent-4-en-2-amine] | 0.0109 | – | – | – | – | – | 8.75 | 86.6 ± 1.77 | 3 | effectively increased the pain threshold | better efficacy than LX-9211 | 36853 | 64.5 | 572
CC(C)C[C@](C)(N)COc1ccc(-c2ccnc(C(F)F)c2)nc1C(F)F [LX-9211, reference compound] | – | 22.2 ± 8.1 | 751 ± 204 | 22.2 ± 7.7 | 9.08 ± 1.4 | 500 ± 183 | 1.82 | 102 ± 4.08 | 1 | effectively increased the pain threshold | – | 110424 | 16.6 | 6640
